Consider ten compounds from patent publication US20260077051A1, “COMPOUNDS FOR THE DEGRADATION OF EGFR KINASE” (BeOne Medicines I GmbH, priority 2023, published 2026).

As usually defined, the DC50 is the concentration at which degradation of the target reaches its halfway point. The low end stands for degradation at low concentration, the high end for degradation only at high concentration. A word on the Dmax: it is the largest share of the target that was removed.

Experiment [1] has as its target T1, EGFR L858R (BaF3-L858R cells) (Homo sapiens, UniProt P00533, L858R).
T1 construct: host or cells: BaF3
Kind of experiment: EGFR degradation in BaF3-L858R cells (HTRF assay). The class given is cell-based. The note with it: 16 h treatment; for DC50: IC50(DC50) of EGFR degradation; for Dmax: maximum percentage of inhibition (degradation). Here is the method:
BaF3-L858R (abbv. L858R) cell were purchased from Kangyuan Bochuang Biotechnology (Beijing) Co., Ltd.
(§1) H1975-#8 and BaF3-L858R cells are treated with compounds diluted in 0.1% DMSO cell culture medium on day 2, incubate for 16 h, 37° C., 5% CO2. the final concentration of compounds in all assay is start with 10 uM, 5-fold dilution, total 8 doses were included.
(§2) After 16 h treatment, for H1975-#8 cells, add 100 ul HTRF 1× lysis buffer to each well; for BaF3-L858R cells, add 20 μl 4× lysis buffer to each well; seal the plate and incubate 1 hour at room temperature on a plate shaker; Once the cells are lysed, 16 μL of cell lysate are transferred to a PE 384-well HTRF detection plate; 4 μL of pre-mixed HTRF antibodies are added to each well; Cover the plate with a plate sealer, spin 1000 rpm for 1 min, Incubate overnight at room temperature; Read on BMG PheraStar with HTRF protocol (337 nm-665 nm-620 nm).
(§3) The inhibition (degradation) percentage of the compound was calculated by the following equation:
(§4) High control=Cell group with added DMSO and without compound, indicating microplate readings without EGFR degradation;
(§5) Dmax is the maximum percentage of inhibition (degradation).
(§6) The IC50(DC50) value of a compound can be obtained by fitting the following equation
(§7) Wherein, X and Y are known values, and IC50, Hillslope, Top and Bottom are the parameters obtained by fitting with software. Y is the inhibition percentage (calculated from the equation), X is the concentration of the compound; IC50 is the concentration of the compound when the 50% inhibition is reached. The smaller the IC50 value is, the stronger the inhibitory ability of the compound is. Vice versa, the higher the IC50 value is, the weaker the ability the inhibitory ability of the compound is; Hillslope represents the slope of the fitted curve, generally around 1*; Bottom represents the minimum value of the curve obtained by data fitting, which is generally 0%±20%; Top represents the maximum value of the curve obtained by data fitting, which is generally 100%±20%. The experimental data were fitted by calculating and analyzing with Dotmatics data analysis software.
On the technique in general: Time-resolved FRET reads energy transfer from a long-lived donor to a nearby acceptor.

For experiment [2], the target named is T2, EGFR-L858R/C797S (H1975-clone #8 cells) (Homo sapiens, UniProt P00533, C797S/L858R).
T2 construct: expressed in transfected cells; host or cells: H1975 (lentiviral transduction, endogenous EGFR knocked out, single clone #8)
T2 sequence (P00533 25-1210 C797S/L858R): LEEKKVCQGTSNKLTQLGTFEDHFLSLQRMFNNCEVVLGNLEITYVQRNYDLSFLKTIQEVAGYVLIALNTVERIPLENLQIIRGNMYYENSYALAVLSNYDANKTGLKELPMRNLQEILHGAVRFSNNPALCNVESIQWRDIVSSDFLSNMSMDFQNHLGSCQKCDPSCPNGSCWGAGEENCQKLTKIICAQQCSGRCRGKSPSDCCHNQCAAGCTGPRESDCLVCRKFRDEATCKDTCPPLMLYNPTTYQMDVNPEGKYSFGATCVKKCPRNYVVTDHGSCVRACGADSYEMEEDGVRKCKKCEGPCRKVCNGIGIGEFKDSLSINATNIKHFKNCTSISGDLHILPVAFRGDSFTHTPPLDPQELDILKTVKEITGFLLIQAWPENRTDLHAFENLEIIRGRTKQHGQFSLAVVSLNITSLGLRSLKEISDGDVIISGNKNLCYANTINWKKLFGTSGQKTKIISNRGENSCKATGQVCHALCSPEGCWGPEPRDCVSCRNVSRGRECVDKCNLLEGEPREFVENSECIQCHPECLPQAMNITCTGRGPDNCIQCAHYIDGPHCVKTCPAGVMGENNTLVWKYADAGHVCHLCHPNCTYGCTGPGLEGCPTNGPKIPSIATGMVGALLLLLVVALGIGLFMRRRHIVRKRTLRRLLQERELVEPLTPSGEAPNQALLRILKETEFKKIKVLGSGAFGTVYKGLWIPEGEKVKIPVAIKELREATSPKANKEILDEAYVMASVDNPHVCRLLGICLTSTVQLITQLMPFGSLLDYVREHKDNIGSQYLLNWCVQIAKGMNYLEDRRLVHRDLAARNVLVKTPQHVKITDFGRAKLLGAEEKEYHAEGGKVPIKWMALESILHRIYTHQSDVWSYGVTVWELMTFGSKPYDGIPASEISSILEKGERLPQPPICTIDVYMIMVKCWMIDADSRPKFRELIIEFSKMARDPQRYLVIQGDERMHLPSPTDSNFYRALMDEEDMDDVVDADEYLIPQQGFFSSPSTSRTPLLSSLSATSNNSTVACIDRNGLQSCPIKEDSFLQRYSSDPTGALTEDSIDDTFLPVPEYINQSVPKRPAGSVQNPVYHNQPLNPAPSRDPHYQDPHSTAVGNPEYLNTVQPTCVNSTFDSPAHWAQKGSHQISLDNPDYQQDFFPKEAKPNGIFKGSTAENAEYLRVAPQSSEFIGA
Kind of experiment: EGFR degradation in H1975-clone#8 (L858R/C797S) cells (HTRF assay). The class given is cell-based. As to conditions: 16 h treatment; for DC50: IC50(DC50) of EGFR degradation; for Dmax: maximum percentage of inhibition (degradation). Here is the method: H1975-clone #8 (L858R/C797S): EGFR-L858R/C797S were stably expressed in H1975 cell lines by lentivirus-mediated over-expression, respectively. The EGFR over-expressed cells then underwent knockout, in which the EGFR targeting sgRNA was designed to only target the endogenous EGFR copies and preserve the exogenous EGFR copies. Followed by the knockout, the edited H1975 cells were seeded in 96 well plates at the concentration of […], cultured for about 2 weeks to allow single clones formation. The formed clones were screened by DNA sequencing and whole exon sequencing analysis for the desired edition. H1975-clone #8 were finally confirmed as homozygous L858R/C797S EGFR clones.
as §1, §2, §3, §4, §5, §6, §7

T1 sequence (P00533 25-1210 L858R): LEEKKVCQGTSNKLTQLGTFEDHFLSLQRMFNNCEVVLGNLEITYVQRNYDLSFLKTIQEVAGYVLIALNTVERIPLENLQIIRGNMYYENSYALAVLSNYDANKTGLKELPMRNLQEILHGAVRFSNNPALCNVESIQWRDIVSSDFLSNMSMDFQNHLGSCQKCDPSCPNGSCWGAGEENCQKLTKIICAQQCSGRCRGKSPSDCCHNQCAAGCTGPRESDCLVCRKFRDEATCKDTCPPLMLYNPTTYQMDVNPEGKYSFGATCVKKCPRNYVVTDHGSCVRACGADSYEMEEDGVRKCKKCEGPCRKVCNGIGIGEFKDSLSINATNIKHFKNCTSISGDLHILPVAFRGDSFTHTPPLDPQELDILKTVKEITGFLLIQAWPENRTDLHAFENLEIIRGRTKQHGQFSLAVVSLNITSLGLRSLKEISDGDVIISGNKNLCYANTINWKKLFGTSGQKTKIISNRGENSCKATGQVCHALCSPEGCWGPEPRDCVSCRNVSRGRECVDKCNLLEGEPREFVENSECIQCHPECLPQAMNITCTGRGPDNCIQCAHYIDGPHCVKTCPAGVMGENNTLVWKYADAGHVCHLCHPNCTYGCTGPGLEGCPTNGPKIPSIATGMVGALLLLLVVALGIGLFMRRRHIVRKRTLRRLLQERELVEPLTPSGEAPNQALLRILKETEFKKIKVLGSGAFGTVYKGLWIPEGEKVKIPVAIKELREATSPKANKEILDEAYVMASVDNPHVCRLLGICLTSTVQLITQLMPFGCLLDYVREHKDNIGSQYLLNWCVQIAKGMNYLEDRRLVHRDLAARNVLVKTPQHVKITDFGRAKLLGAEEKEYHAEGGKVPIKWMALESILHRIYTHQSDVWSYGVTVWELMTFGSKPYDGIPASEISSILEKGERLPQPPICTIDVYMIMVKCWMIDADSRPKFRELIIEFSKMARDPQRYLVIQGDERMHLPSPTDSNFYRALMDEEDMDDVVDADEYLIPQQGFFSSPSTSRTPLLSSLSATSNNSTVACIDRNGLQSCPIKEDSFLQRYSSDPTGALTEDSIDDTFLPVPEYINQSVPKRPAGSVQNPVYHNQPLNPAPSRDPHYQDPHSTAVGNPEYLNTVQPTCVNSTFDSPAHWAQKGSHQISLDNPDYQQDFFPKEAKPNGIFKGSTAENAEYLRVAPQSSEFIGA

In the case of `Cc1cc2cc(n1)-c1cnn(C)c1OCC[C@]1(C)C[C@H]1CN1/C(=N/C2=O)Nc2ccc(N3CCN(C4CCN(c5ccc(C6CCC(=O)NC6=O)nc5C)CC4)CC3)cc21` (stereo partly shown) [Example 19, 3-(6-methyl-5-(4-(4-((7^1R,7^2S,E)-1^1,2^6,7^2-trimethyl-3-oxo-5^2,5^3-dihydro-1^1H,5^1H-10-oxa-4-aza-5 (2,1)-benzo[d]imidazola-2 (2,4)-pyridina-1 (4,5)-pyrazola-7 (1,2)-cyclopropanacyclodecaphane-5^6-yl)piperazin-1-yl)piperidin-1-yl)pyridin-2-yl)piperidine-2,6-dione], in experiment [1], half-maximal degradation (DC50) was put at 1.93 nM and the Dmax is 94.5%. Moreover, in experiment [2], the DC50 worked out at 3 nM and the Dmax was found to be 75%.
In the same order, the values of `Cc1cc2cc(n1)-c1cnn(C)c1OCC[C@H]1C[C@@H]1CN1/C(=N/C2=O)Nc2ccc(N3CCN(C4CN(C5CCN(c6ccc(C7CCC(=O)NC7=O)nc6C)CC5)C4)C[C@@H]3C)cc21` (stereo partly drawn) [Example 36, 3-(5-(4-(3-((S)-4-((7^1S,7^2R,E)-1^1,2^6-dimethyl-3-oxo-5^2,5^3-dihydro-1^1H,5^1H-10-oxa-4-aza-5 (2,1)-benzo[d]imidazola-2 (2,4)-pyridina-1 (4,5)-pyrazola-7 (1,2)-cyclopropanacyclodecaphane-5^6-yl)-3-methylpiperazin-1-yl)azetidin-1-yl)piperidin-1-yl)-6-methylpyridin-2-yl)piperidine-2,6-dione] are 13.4 nM, 68.5%, 2.61 nM and 41.7%.
In the same order, the values of `Cc1cc2cc(n1)-c1cnn(C)c1OCC[C@H]1C[C@@H]1CN1/C(=N/C2=O)Nc2ccc(N3CCN(C4CN(C5CCN(c6ccc(C7CCC(=O)NC7=O)nc6C)CC5)C4)C[C@H]3C)cc21` (stereo partly drawn) [Example 37, 3-(5-(4-(3-((R)-4-((7^1S,7^2R,E)-1^1,2^6-dimethyl-3-oxo-5^2,5^3-dihydro-1^1H,5^1H-10-oxa-4-aza-5 (2,1)-benzo[d]imidazola-2 (2,4)-pyridina-1 (4,5)-pyrazola-7 (1,2)-cyclopropanacyclodecaphane-5^6-yl)-3-methylpiperazin-1-yl)azetidin-1-yl)piperidin-1-yl)-6-methylpyridin-2-yl)piperidine-2,6-dione] are 7.92 nM, 64.5%, 8.34 nM and 55.9%.
In the case of `Cc1cc2cc(n1)-c1cnn(C)c1OCC[C@]1(C)C[C@H]1CN1/C(=N/C2=O)Nc2ccc(N3CCN([C@@H]4CCN(c5ccc(C6CCC(=O)NC6=O)nc5C)C[C@@H]4F)CC3)cc21` (stereo partly drawn) [Example 49, 3-(5-((3S,4R)-3-fluoro-4-(4-((7^1R,7^2S,E)-1^1,2^6,7^2-trimethyl-3-oxo-5^2,5^3-dihydro-1^1H,5^1H-10-oxa-4-aza-5 (2,1)-benzo[d]imidazola-2 (2,4)-pyridina-1 (4,5)-pyrazola-7 (1,2)-cyclopropanacyclodecaphane-5^6-yl)piperazin-1-yl)piperidin-1-yl)-6-methylpyridin-2-yl)piperidine-2,6-dione], in experiment [1], the DC50 turned out to be 0.418 nM and the Dmax amounted to 86.7%. In addition, in experiment [2], the DC50 amounted to 0.942 nM and the Dmax amounted to 86.9%.
On the same counts, the results for `Cc1cc2cc(n1)-c1cnn(C)c1OCC[C@]1(C)C[C@H]1CN1/C(=N/C2=O)Nc2ccc(N3CCN([C@H]4CCN(c5ccc(C6CCC(=O)NC6=O)nc5C)C[C@H]4F)CC3)cc21` (stereo partly drawn) [Example 62, 3-(5-((3R,4S)-3-fluoro-4-(4-((7^1R,7^2S,E)-1^1,2^6,7^2-trimethyl-3-oxo-5^2,5^3-dihydro-1^1H,5^1H-10-oxa-4-aza-5 (2,1)-benzo[d]imidazola-2 (2,4)-pyridina-1 (4,5)-pyrazola-7 (1,2)-cyclopropanacyclodecaphane-5^6-yl)piperazin-1-yl)piperidin-1-yl)-6-methylpyridin-2-yl)piperidine-2,6-dione] are 0.69 nM, 93.8%, 0.612 nM and 76.8%.
In experiment [1], `Cc1cc2cc(n1)-c1cnn(C)c1OCC[C@H]1C[C@@H]1CN1/C(=N/C2=O)Nc2ccc(N3CCN(C4CCN(c5c(C)cc(C6CCC(=O)NC6=O)nc5C)CC4)CC3)cc21` (stereo partly shown) [Example 15, 3-(5-(4-(4-((7^1S,7^2R,E)-1^1,2^6-dimethyl-3-oxo-5^2,5^3-dihydro-1^1H,5^1H-10-oxa-4-aza-5 (2,1)-benzo[d]imidazola-2 (2,4)-pyridina-1 (4,5)-pyrazola-7 (1,2)-cyclopropanacyclodecaphane-5^6-yl)piperazin-1-yl)piperidin-1-yl)-4,6-dimethylpyridin-2-yl)piperidine-2,6-dione] came in with a DC50 of 4.48 nM and a Dmax of 82.5%. Also, in experiment [2], the DC50 is 4.96 nM and the Dmax turned out to be 46.1%.
On the same counts, the results for `Cc1cc2cc(n1)-c1cnn(C)c1OCC[C@]1(C)C[C@H]1CN1/C(=N/C2=O)Nc2ccc(N3CCN(C4CN(C5CCN(c6cc(F)c([C@H]7CCC(=O)NC7=O)c(F)c6)CC5)C4)C[C@@H]3C)cc21` [Example 27, (R)-3-(2,6-difluoro-4-(4-(3-((S)-3-methyl-4-((7^1R,7^2S,E)-1^1,2^6,7^2-trimethyl-3-oxo-5^2,5^3-dihydro-1^1H,5^1H-10-oxa-4-aza-5 (2,1)-benzo[d]imidazola-2 (2,4)-pyridina-1 (4,5)-pyrazola-7 (1,2)-cyclopropanacyclodecaphane-5^6-yl)piperazin-1-yl)azetidin-1-yl)piperidin-1-yl)phenyl)piperidine-2,6-dione] are 1.25 nM, 79.1%, 1.31 nM and 63.6%.
In the same order, the values of `Cc1cc2cc(n1)-c1cnn(C)c1OCC[C@H]1C[C@@H]1CN1/C(=N/C2=O)Nc2ccc(N3CC4CCC3CN4C3CN(C4CCN(c5c(C)cc(C6CCC(=O)NC6=O)nc5C)CC4)C3)cc21` (stereo partly shown) [Example 28, 3-(5-(4-(3-(5-((7^1S,7^2R,E)-1^1,2^6-dimethyl-3-oxo-5^2,5^3-dihydro-1^1H,5^1H-10-oxa-4-aza-5 (2,1)-benzo[d]imidazola-2 (2,4)-pyridina-1 (4,5)-pyrazola-7 (1,2)-cyclopropanacyclodecaphane-5^6-yl)-2,5-diazabicyclo[2.2.2]octan-2-yl)azetidin-1-yl)piperidin-1-yl)-4,6-dimethylpyridin-2-yl)piperidine-2,6-dione] are 6.31 nM, 78.2%, 2.71 nM and 49%.
In experiment [1], `CCc1nc(C2CCC(=O)NC2=O)ccc1N1CCC(N2CCN(c3ccc4c(c3)N3C[C@@H]5C[C@@]5(C)CCOc5c(cnn5C)-c5cc(cc(C)n5)C(=O)/N=C/3N4)CC2)CC1` (stereo partly shown) [Example 25, 3-(6-ethyl-5-(4-(4-((7^1R,7^2S,E)-1^1,2^6,7^2-trimethyl-3-oxo-5^2,5^3-dihydro-1^1H,5^1H-10-oxa-4-aza-5 (2,1)-benzo[d]imidazola-2 (2,4)-pyridina-1 (4,5)-pyrazola-7 (1,2)-cyclopropanacyclodecaphane-5^6-yl)piperazin-1-yl)piperidin-1-yl)pyridin-2-yl)piperidine-2,6-dione] displayed a DC50 of 2.42 nM and a Dmax of 91.5%. In experiment [2], this compound gave a DC50 of 1.65 nM and a Dmax of 57%.
In experiment [1], `Cc1cc2cc(n1)-c1cnn(C)c1OCC[C@H]1C[C@@H]1CN1/C(=N/C2=O)Nc2ccc(N3CCN(C4CN(C5CCN(c6cc(F)c([C@H]7CCC(=O)NC7=O)c(F)c6)CC5)C4)CC3)cc21` [Example 10, (R)-3-(4-(4-(3-(4-((7^1S,7^2R,E)-1^1,2^6-dimethyl-3-oxo-5^2,5^3-dihydro-1^1H,5^1H-10-oxa-4-aza-5 (2,1)-benzo[d]imidazola-2 (2,4)-pyridina-1 (4,5)-pyrazola-7 (1,2)-cyclopropanacyclodecaphane-5^6-yl)piperazin-1-yl)azetidin-1-yl)piperidin-1-yl)-2,6-difluorophenyl)piperidine-2,6-dione] displayed a DC50 of 6.97 nM and a Dmax of 91.3%. Further, in experiment [2], the DC50 was over 10000 nM and the Dmax came out at 31.2%.
